Values joined by “and” are separate entries in the source; they are usually repeats but may differ in a detail not shown here. Equal values may be shown once.
What was measured:
[1] = system: 26_ds (RNA, hairpin) CAAUCGGAUCGAAUUCGAUCCGAUUG; assay: fluorescent intercalator displacement (FID); details: 10 mM KCl + 10 mM potassium phosphate (20 mM K+); pH 7, room temperature; 0.25 µM RNA; 0.5 µM thiazole orange displaced
[2] = system: 22_TERRA (RNA, G4) AGGGUUAGGGUUAGGGUUAGGG; assay: fluorescent intercalator displacement (FID); details: 10 mM KCl + 10 mM potassium phosphate (20 mM K+); pH 7, room temperature; 0.25 µM RNA; 0.5 µM thiazole orange displaced
[3] = system: 22_TERRA_2Ap19 (RNA, G4, 2-aminopurine at 19) AGGGUUAGGGUUAGGGUUAGGG; assay: 2-aminopurine fluorescence quenching; details: 10 mM KCl + 10 mM potassium phosphate; pH 7.0, room temperature; 2.5 μM RNA; 2.5 or 5 μM compound
[4] = system: 22_TERRA_2Ap13 (RNA, G4, 2-aminopurine at 13) AGGGUUAGGGUUAGGGUUAGGG; assay: 2-aminopurine fluorescence quenching; details: 10 mM KCl + 10 mM potassium phosphate; pH 7.0, room temperature; 2.5 μM RNA; 2.5 or 5 μM compound
[5] = system: 22_TERRA_2Ap7 (RNA, G4, 2-aminopurine at 7) AGGGUUAGGGUUAGGGUUAGGG; assay: 2-aminopurine fluorescence quenching; details: 10 mM KCl + 10 mM potassium phosphate; pH 7.0, room temperature; 2.5 μM RNA; 2.5 or 5 μM compound

| DC50 [1] | DC50 [2] | binding [3] | binding [4] | binding [5] | SMILES |
| --- | --- | --- | --- | --- | --- |
| 760 ± 30 nM and 820 ± 30 nM | 590 ± 10 nM and 610 ± 20 nM |  |  |  | C(=NC(COCc1ccc(Oc2ccc(COCC(N=Cc3ccccn3)c3ccccc3)cc2)cc1)c1ccccc1)c1ccccn1.C(=NC(COCc1ccc(Oc2ccc(COCC(N=Cc3ccccn3)c3ccccc3)cc2)cc1)c1ccccc1)c1ccccn1.C(=NC(COCc1ccc(Oc2ccc(COCC(N=Cc3ccccn3)c3ccccc3)cc2)cc1)c1ccccc1)c1ccccn1.[Fe+2].[Fe+2] (stereo not shown) [5d] |
| 910 ± 40 nM and 930 ± 30 nM | 680 ± 30 nM and 660 ± 20 nM |  |  |  | C(=NC(COCc1ccc(Sc2ccc(COCC(N=Cc3ccccn3)c3ccccc3)cc2)cc1)c1ccccc1)c1ccccn1.C(=NC(COCc1ccc(Sc2ccc(COCC(N=Cc3ccccn3)c3ccccc3)cc2)cc1)c1ccccc1)c1ccccn1.C(=NC(COCc1ccc(Sc2ccc(COCC(N=Cc3ccccn3)c3ccccc3)cc2)cc1)c1ccccc1)c1ccccn1.[Fe+2].[Fe+2] (stereo not shown) [5e] |
| 720 ± 20 nM and 950 ± 80 nM | 470 ± 50 nM and 570 ± 60 nM |  |  |  | C(=NC(COCc1ccc(COCC(N=Cc2ccccn2)c2ccccc2)cc1)c1ccccc1)c1ccccn1.C(=NC(COCc1ccc(COCC(N=Cc2ccccn2)c2ccccc2)cc1)c1ccccc1)c1ccccn1.C(=NC(COCc1ccc(COCC(N=Cc2ccccn2)c2ccccc2)cc1)c1ccccc1)c1ccccn1.[Fe+2].[Fe+2] (stereo not shown) [5a] |
| 720 ± 70 nM and 800 ± 50 nM | 470 ± 50 nM and 600 ± 60 nM |  |  |  | C(=NC(COCc1ccc(Cc2ccc(COCC(N=Cc3ccccn3)c3ccccc3)cc2)cc1)c1ccccc1)c1ccccn1.C(=NC(COCc1ccc(Cc2ccc(COCC(N=Cc3ccccn3)c3ccccc3)cc2)cc1)c1ccccc1)c1ccccn1.C(=NC(COCc1ccc(Cc2ccc(COCC(N=Cc3ccccn3)c3ccccc3)cc2)cc1)c1ccccc1)c1ccccn1.[Fe+2].[Fe+2] (stereo not shown) [5f] |

The next lines start with the molecule.

| SMILES | DC50 [1] | DC50 [2] | binding [3] | binding [4] | binding [5] |
| --- | --- | --- | --- | --- | --- |
| C(=NC(COCc1ccc(-c2ccc(COCC(N=Cc3ccccn3)c3ccccc3)cc2)cc1)c1ccccc1)c1ccccn1.C(=NC(COCc1ccc(-c2ccc(COCC(N=Cc3ccccn3)c3ccccc3)cc2)cc1)c1ccccc1)c1ccccn1.C(=NC(COCc1ccc(-c2ccc(COCC(N=Cc3ccccn3)c3ccccc3)cc2)cc1)c1ccccc1)c1ccccn1.[Fe+2].[Fe+2] (stereo not shown) [5c] | 830 ± 40 nM and 900 ± 70 nM | 590 ± 40 nM and 690 ± 60 nM |  |  |  |
| C(=NC(COCc1ccc2oc3ccc(COCC(N=Cc4ccccn4)c4ccccc4)cc3c2c1)c1ccccc1)c1ccccn1.C(=NC(COCc1ccc2oc3ccc(COCC(N=Cc4ccccn4)c4ccccc4)cc3c2c1)c1ccccc1)c1ccccn1.C(=NC(COCc1ccc2oc3ccc(COCC(N=Cc4ccccn4)c4ccccc4)cc3c2c1)c1ccccc1)c1ccccn1.[Fe+2].[Fe+2] (stereo not shown) [5h] | 870 ± 60 nM and 890 ± 20 nM | 630 ± 40 nM and 640 ± 50 nM |  |  |  |
| C(=NC(COCc1cccc(COCC(N=Cc2ccccn2)c2ccccc2)c1)c1ccccc1)c1ccccn1.C(=NC(COCc1cccc(COCC(N=Cc2ccccn2)c2ccccc2)c1)c1ccccc1)c1ccccn1.C(=NC(COCc1cccc(COCC(N=Cc2ccccn2)c2ccccc2)c1)c1ccccc1)c1ccccn1.[Fe+2].[Fe+2] (stereo not shown) [5b] | 1470 ± 90 nM and 1580 ± 100 nM | 410 ± 40 nM and 270 ± 20 nM | yes | yes | yes |
| C(=NC(COCc1ccc(CCc2ccc(COCC(N=Cc3ccccn3)c3ccccc3)cc2)cc1)c1ccccc1)c1ccccn1.C(=NC(COCc1ccc(CCc2ccc(COCC(N=Cc3ccccn3)c3ccccc3)cc2)cc1)c1ccccc1)c1ccccn1.C(=NC(COCc1ccc(CCc2ccc(COCC(N=Cc3ccccn3)c3ccccc3)cc2)cc1)c1ccccc1)c1ccccn1.[Fe+2].[Fe+2] (stereo not shown) [5g] | 780 ± 40 nM and 770 ± 50 nM | 510 ± 30 nM and 570 ± 50 nM |  |  |  |

Source: article PMC7471899 (2020)
